Source: US20130344140A1, “NOVEL PHARMACEUTICAL COMBINATIONS AND METHODS FOR TREATING CANCER” (Agency for Science, Technology and Research, priority 2011, published 2013)
“Also recorded” adds a separate entry of the source. Read-outs that look alike come from different tables or passages of the source.

Tests used:
ATM = ATM / DNA damage checkpoint dependence of VX-680-induced G2 arrest (western blot, DNA FACS profiles); type: cell-based
Experimental: For western blotting, cell extracts were prepared using NP-40 lysis buffer (50 mM Tris-HCl (pH 8.0), 150 mM NaCl, 1% NP-40, 5 mM EDTA supplemented with protease and phosphatase inhibitor cocktails (Sigma).

A549 cells [1] = experiment: Micronuclei formation and γH2AX staining (immunofluorescence microscopy) in A549 cells; type: cell-based; details: A549; nutlin-3 only, or nutlin-3 16 h before VX-680 48 h
Experimental: Cells were fixed and stained for γH2AX (green) as described in Materials and Methods in the Examples. Nuclei were counterstained with DAPI blue. Visualization of nuclei and γH2AX positive foci was done by fluorescence microscopy.
Indirect immunofluorescence was carried out as described previously.^14 g-H2AX (Novus Biologicals, Littleton, Colo., USA, NB 100-383) and anti-rabbit Alexa 488-coupled secondary antibody (Molecular Probes, Carlsbad, Calif., USA) were used. Nuclei were counterstained with Hoechst 33342 (Molecular Probes). Immunofluorescence was visualized using Axiolmager Z1 (Zeiss, Gottingen, Germany).

A549 cells [2] = experiment: Cell cycle / BrdU analysis of A549 cells pretreated with nutlin-3 before VX-680; type: cell-based
Experimental: Cells were treated with 200 nM VX-680 for 24 h and incubated with […] BrdU for 30 min. […] BrdU-positive cells in untreated control sample (upper left panel) and BrdU-positive cells that are […] DNA (endoreduplicating cells) (upper right panel) are highlighted in the boxes and the percentages over the total cell population are indicated.
(b) is a schematic diagram showing the timing and order of addition of drugs. At 48 h after VX-680 treatment, cells were washed in drug-free media and incubated in drug-free media for another 48, 96 or 120 h. Cell cycle distribution was analyzed by flow cytometry. Also shown are the DNA profiles obtained using the drug treatment protocol depicted in (a).
Cells were incubated in DMEM containing […] BrdU for 30 min in a 37° C./5% CO2 incubator. Detection of BrdU-labeled cells was performed using the In Situ Cell Proliferation Kit from Roche. In brief, cells were harvested and fixed using a 70% ethanol/50 mM Glycine (pH 2.0) on ice. Cells were pelleted and resuspended in the HCl-denaturation solution at room temperature for 20 min. Cells were then pelleted and 50 μl anti-BrdU-FLUOS antibody was added to the cells and incubated for 45 min at 37° C. in a humidified chamber. For staining of total DNA, 7-AAD was added to the cells, followed by incubation at room temperature for 10 min. Cells were analyzed immediately using flow cytometry (BD LSR II System).

HCT116 p53+/+ cells = experiment: Cell cycle analysis of HCT116 p53+/+ cells (nutlin-3, VX-680); type: cell-based; details: HCT116p53+/+
Experimental: (a) is a comparison of the DNA profiles of P53+/+ and p53−/− cells after treatment with VX-680. HCT116 p53+/+ and p53−/− cells were incubated with 200 nM VX-680 and cells were harvested at the indicated time points for analysis of cell cycle distribution.
(b) is a comparison of the DNA profiles of p53+/+ and p53−/− cells with pre-treatment of Nutlin before incubation with VX-680.

A549 cells [3] = experiment: Colony survival assay, A549; type: cell-based; parameters: enhancement of the fraction of surviving colonies: dose or concentration left out as unconfirmed
Experimental: (§1) Colonies were counted 2 weeks after recovery in drug-free media. Cells were fixed with glutaraldehyde and stained with crystal violet. Plates are scanned and colonies were counted with an automated image analyzer. Three independent experiments were performed for each cell line.
(§2) Each data point represents the mean±S.D.
(§3) A total of 1000 cells were plated on each 10 cm plate and allowed to adhere overnight. […] After 48 h, cells were washed and recovered in fresh media for 12 days. Cells were then fixed in 6% glutaraldehyde (Sigma) and stained with crystal violet. Colonies were counted using GelCount™ (Oxford Optronix, Oxford, England). Each condition was carried out in triplicate.

human keratinocytes = details: for tetraploidy / endoreduplication after nutlin pretreatment: keratinocytes pretreated with nutlin-3 16 h, then VX-680 (200 nM) 48 h
Experimental: Primary human keratinocytes were purchased from Invitrogen and cultured in defined keratinocyte serum-free media (Invitrogen). All cell lines were cultured in a CO2 incubator (5% CO2 and 21% O2) at 37° C.
For analysis of cell cycle distribution, cells were harvested and fixed in 70% ethanol/PBS solution. Cells were stained in propidium-iodide containing solution (25 μg/ml propidium iodide supplemented with 1 mg/ml RNase A, in PBS (pH 7.8); Sigma Chemical, St Louis, Mo., USA) for 15 min at room temperature.

[4] = test system: MDA-MB 468 and HCT116 p53−/−; experiment: Annexin V apoptosis assay, p53-compromised cell lines; type: cell-based; details: p53-compromised cells pretreated with nutlin-3 before VX-680
Experimental: Cells were then harvested and stained for annexin V to detect apoptotic cells.
For analysis of apoptosis, cells were harvested without fixation. Apoptosis was evaluated using the annexin V (fluorescein isothiocyanate (FITC))-propidium iodide binding assay (Roche, Indianapolis, Ind., USA). The extent of apoptosis was quantified as a percentage of annexin V-positive cells over the total cell population. Flow cytometric analysis was performed on a BD LSR II System (BD Biosciences, Stockholm, Sweden). Data were analyzed using FlowJo software and ModFit LT (Verity Software House, Topsham, Me., USA).

p53-deficient HCT116 = experiment: Colony survival assay, p53-deficient HCT116; type: cell-based; details: p53-deficient HCT116, nutlin-3 pretreatment before VX-680
Experimental: as §1, §2, §3

[5] = test system: HCT116p53+/+ (green) and HCT116p53−/− (red) cells; experiment: Co-culture of HCT116p53+/+ GFP and HCT116p53−/− RFP cells; type: cell-based; details: mixed population pretreated with nutlin-3 then VX-680, 5 days after drugs removal
From the text: (e) is a schematic illustration of fluorescent microscopy images of HCT116 p53+/+ and p53−/− cells that were transduced with recombinant lentiviruses carrying GFP and RFP genes, respectively. The cells were selected in zeocin for 2 weeks to achieve the stable cell lines, HCT116 p53+/+GFP and HCT116 p53−/− RFP. Equal numbers of HCT116 p53+/+GFP and p53−/− RFP were mixed and seeded to achieve 30% growth confluency. […] Cells were then washed twice with drug-free media and allowed to recover for 5 days in fresh complete media. Microscopy images were taken with Deltavision (Axio). […] Insets 1 and 2 show higher magnification of the images on the left.
We further studied the responses of p53 wild-type and p53-deficient cells in co-culture system, in which both cell types were cultured together for the duration of the experiment. HCT116p53+/+ and the HCT116p53−/− cells were distinguished using green fluorescent protein (GFP) and red fluorescent protein (RFP) fluorescent markers. Equal numbers of HCT116p53+/+ (green) and HCT116p53−/− (red) cells were mixed and plated in 10 cm plates, before exposure to a similar drug dosage regimen as described in FIG. 6c.

HCT116p53+/+ cells = experiment: Colony survival assay, HCT116p53+/+; type: cell-based; details: pretreated with nutlin-3, versus VX-680 alone
Experimental: as §1, §2, §3

SMILES: O=c1cc(-c2cccc3c2Sc2ccccc2S3)oc(N2CCOCC2)c1 [KU55933]
- γH2AX and ATM-S1981 phosphorylation in response to doxorubicin (ATM; KU55933 with 1 μM doxorubicin): abrogates the observed phosphorylation in a dose-dependent manner; also recorded: clearly reduced
- effect on VX-680-induced G2 arrest (ATM; pre-treatment with KU55933 before VX-680): does not abrogate

SMILES: COc1cccc2c1C(=O)c1c(O)c3c(c(O)c1C2=O)C[C@@](O)(C(=O)CO)C[C@@H]3O[C@H]1C[C@H](N)[C@H](O)[C@H](C)O1 [doxorubicin]
- phospho-S1981 ATM, phospho-H2AX, phospho-S15 p53 (ATM; 1 μM doxorubicin): accumulation

SMILES: COc1ccc(C2=N[C@@H](c3ccc(Cl)cc3)[C@@H](c3ccc(Cl)cc3)N2C(=O)N2CCNC(=O)C2)c(OC(C)C)c1 [nutlin-3]
- frequency of micronuclei and γH2AX staining (A549 cells [1]): low frequency
- cell cycle arrest of nutlin-3-pretreated cells (A549 cells [2]; A549, nutlin-3 (5 µM) before VX-680 treatment, 48 h VX-680, confirmed by BrdU assay): arrested cells even after 48 h of VX-680 exposure
- cell cycle arrest of nutlin-3-pretreated cells (A549 cells [2]; A549, nutlin-3 (5 μM) followed by VX-680 (200 nM)): remained arrested at G1
- DNA profile after recovery in drug-free media (A549 cells [2]; A549, nutlin-3 pretreatment then VX-680, recovered in drug-free media): normal diploid DNA profile
- cell cycle arrest by nutlin (HCT116 p53+/+ cells): induced an arrest
- protection from VX-680-induced endoreduplication by nutlin pretreatment (HCT116 p53+/+ cells; nutlin-3 16 h then VX-680 (200 nM) and nutlin-3 48 h): protects
- enhancement of the fraction of surviving colonies (A549 cells [3]; A549, pretreated with for 16 h before VX-680 48 h, versus VX-680 alone): up to 20 fold
- number of surviving colonies (A549 cells [3]; nutlin alone): moderately decreases
- cellular viability (human keratinocytes): high cellular viability
- tetraploidy / endoreduplication after nutlin pretreatment (human keratinocytes; listed as Nutlin): did not show significant tetraploidy
- tetraploidy / endoreduplication after nutlin pretreatment (human keratinocytes; listed as Nutlin-3): protects primary human keratinocytes from endoreduplication
- degree of apoptosis with nutlin-3 pretreatment [4]: no significant difference
- colony survival rate (p53-deficient HCT116): did not affect
- number of HCT116p53+/+ (green) cells versus HCT116p53−/− (red) cells [5]: far more than
- better survival (colony formation) (HCT116p53+/+ cells): up to 15 fold
